Test results reported in patent publication US8920854B2, “Oral care compositions for treating xerostomia” (Georgia Regents Research Institute, priority 2009, dated 2014).

Columns and labels:
Type in all cases: in vivo, mouse
[1] = system: TUNEL-positive cells in submandibular gland; assay: Apoptotic activity in salivary glands by TUNEL staining, NOD/Lt mice; details: 0.2% EGCG in drinking water, 8, 16, 22 weeks
From the text: Submandibular salivary gland samples from BALB/c (left), water-fed (middle), and EGCG-fed (right) NOD/Lt mice were stained with ApopTag Plus Peroxidase in situ apoptosis detection method according to the manufacturer's instructions. Arrows point to the nuclear staining of TUNEL-positive cells. […] Submandibular salivary gland samples from BALB/c (left), water-fed (middle), and EGCG-fed (right) NOD/Lt mice were immunostained with the anti-PCNA antibody. Arrows point to the nuclear staining of PCNA-positive cells. […] Submandibular salivary gland samples from BALB/c (left), water-fed (middle), and EGCG-fed (right) NOD/Lt mice were immunostained with the anti-Ki-67 antibody. Arrows point to the nuclear staining of Ki-67-positive cells. […] Solid bars represent the average percentage of TUNEL-positive cells in the submandibular gland of water-fed NOD/Lt mice. Open bars represent the average of TUNEL-positive cells in the submandibular gland of EGCG-fed NOD/Lt mice. […] Solid bars represent the average percentage of PCNA-positive cells in the submandibular gland of water-fed NOD/Lt mice. […] The apoptotic activity was determined by TUNEL staining of the salivary glands (FIG. 5A) and quantification (FIG. 6A). […] Although it was not determined which cells were undergoing apoptosis, there was no significant apoptotic activity in the majority of secretory cells (Gillespie K, et al. 2008).

Ki-67 = Ki-67 immunostaining of submandibular glands, NOD/Lt mice; details: 0.2% EGCG in drinking water, 8, 16, 22 weeks
From the text: (§1) Submandibular salivary gland samples from BALB/c (left), water-fed (middle), and EGCG-fed (right) NOD/Lt mice were stained with ApopTag Plus Peroxidase in situ apoptosis detection method according to the manufacturer's instructions. Arrows point to the nuclear staining of TUNEL-positive cells. […] Submandibular salivary gland samples from BALB/c (left), water-fed (middle), and EGCG-fed (right) NOD/Lt mice were immunostained with the anti-PCNA antibody. Arrows point to the nuclear staining of PCNA-positive cells. […] Submandibular salivary gland samples from BALB/c (left), water-fed (middle), and EGCG-fed (right) NOD/Lt mice were immunostained with the anti-Ki-67 antibody. Arrows point to the nuclear staining of Ki-67-positive cells. […] Solid bars represent the average percentage of TUNEL-positive cells in the submandibular gland of water-fed NOD/Lt mice. Open bars represent the average of TUNEL-positive cells in the submandibular gland of EGCG-fed NOD/Lt mice. […] Solid bars represent the average percentage of PCNA-positive cells in the submandibular gland of water-fed NOD/Lt mice. Open bars represent the average of PCNA-positive cells in the submandibular gland of EGCG-fed NOD/Lt mice. […] Solid bars represent the average of Ki-67-positive cells in the submandibular gland of water-fed NOD/Lt mice. Open bars represent the average of Ki-67-positive cells in the submandibular gland of […] […]

NOD/Lt mice = assay: Submandibular gland lymphocytic infiltration in EGCG/water-fed NOD/Lt mice; details: 0.2% EGCG in drinking water
Protocol: Animals were fed either with EGCG/water or water only. At the age of 8 (n=36), 16 (n=36) and 22 weeks (n=27), submandibular glands were dissected, processed and stained by H&E. Three randomly selected areas of lymphocytic infiltrates were measured in each gland as relative density units generated by BIOQUANT NOVA PRIME 6.75 software, representing area sizes. Error bars are standard error of means (SEM). […] An animal study was conducted to examine whether EGCG fed prior to development of exocrinopathy is protective against salivary gland lymphocyte infiltration and gland abnormalities. Since EGCG is the most abundant green tea polyphenol, and widely used in scientific studies, this compound was selected for this feasibility study using 0.2% EGCG in drinking water (Gillespie K, et al. 2008).

PCNA = PCNA immunostaining of submandibular glands, NOD/Lt mice; details: 0.2% EGCG in drinking water, between 16 and 22 weeks of age
From the text: as §1

[2] = system: superoxide dismutase 1 (SOD1); assay: Antioxidant capacity by immunohistochemistry in NOD mice: SOD1; details: EGCG-fed NOD mice, 22 weeks, n=12, P<0.0001
Protocol: Salivary gland and pancreas samples were obtained at 22 weeks of age from NOD mice fed water or EGCG-water (12 animals per group), and from control BALB/c mice. The antioxidant capacity represented by protein levels of peroxiredoxin 6, superoxide dismutase 1 (SOD1), catalase, and glutathione peroxidase was measured by immunohistochemstry.

catalase = assay: Antioxidant capacity by immunohistochemistry in NOD mice: catalase; details: submandibular salivary glands, EGCG-fed NOD/Lt mice, 22 weeks; n=12, p<0.04
From the text: (§2) FIGS. 8A-8C, 8D-8F show representative immunostaining of peroxiredoxin 6 (FIGS. 8A-C) and catalase (FIGS. 8D-F) expression in glandular epithelium of 22 week old water-fed (FIGS. 8A, 8D) and EGCG-treated NOD mice (FIGS. 8B, 8E) (magnification 200×). FIGS. 8C and 8F show statistical analysis of peroxiredoxin 6 and Catalase-positive cells. Black arrows point to ductal cells; open arrow to acinar cells (FIG. 8B). Salivary gland and pancreas samples were obtained at 22 weeks of age from NOD mice fed water or EGCG-water (12 animals per group), and from control BALB/c mice. The antioxidant capacity represented by protein levels of peroxiredoxin 6, superoxide dismutase 1 (SOD1), catalase, and glutathione peroxidase was measured by immunohistochemstry.

peroxiredoxin 6 = assay: Antioxidant capacity by immunohistochemistry in NOD mice: peroxiredoxin 6; details: 22 weeks
From the text: as §2

## O=C(O[C@@H]1Cc2c(O)cc(O)cc2O[C@@H]1c1cc(O)c(O)c(O)c1)c1cc(O)c(O)c(O)c1 [EGCG, epigallocatechin-3-gallate]
[1]
  apoptosis in the glandular epithelium (TUNEL): did not affect
  apoptosis in the infiltrates (TUNEL): initially raising levels, but blocking the considerable increase seen at 22 weeks in water-fed mice
Ki-67
  Ki-67 levels in submandibular glands: affected by EGCG in the same pattern
NOD/Lt mice; 16 weeks of age, p=0.026
  average area of lymphocytic infiltration vs water-fed group: significantly lower
NOD/Lt mice; 22 weeks of age
  average area of lymphocytic infiltration vs water-fed group: no significant difference
PCNA
  PCNA-positive cells in submandibular glands: considerably reduces the rise of PCNA
[2]
  SOD1 level in the pancreas: normalized to BALB/c levels
catalase
  expression of catalase vs water only fed mice: significantly higher
Peroxiredoxin 6; pancreas, EGCG-fed NOD mice, n=12, P<0.0001
  peroxiredoxin 6 level in the pancreas: normalized to BALB/c levels
Peroxiredoxin 6; submandibular salivary glands, EGCG-fed NOD/Lt mice, n=12, p<0.04
  expression of peroxiredoxin 6 vs water only fed mice: significantly higher
